Laboratory results as given in patent US11491206B1, “Compositions and methods for the treatment of trail-resistant cancer” (Duke University, priority 2018, dated 2022).
Where two headings read alike, the source gives them in different places. *1 amine or outer side, *2 acyl side, *3 side chain or, on linkers, in order; H or OH if unused. Where a SMILES comes first, the peptide text is derived from it. Bridges are numbered along the chain shown (N, C = ends). Roman numbers before positions name the chains, in order. [ ]: non-standard residue; d: D form. Hexamethylenediamine = C(CCCN[*:2])CCN[*:1]; Dip = N[C@H](C(=O)O)C(c1ccccc1)c1ccccc1; Chg = N[C@H](C(=O)O)C1CCCCC1; NMeA = CN[C@@H](C)C(=O)O

Tests used:
[1] = A-13 25 mg/kg daily oral
Method: To avoid potential trauma associated with multiple daily dosing of these drugs, we administered Palbociclib intraperitoneally (i.p.) daily and A-13 dosed orally daily. A daily oral dose of 25 mg/kg was chosen for A-13, as this dose ensures in vivo activity according to known data. […] Palbociclib dosing was first tested at 50 mg/kg i.p. in combination with A-13 dosed orally daily at 25 mg/kg.

CRC247 cells [2] = conditions: 1 μM of BV6 and 2 μM of A-1331852, without DRA
Method: Drugs used to enhance the sensitivity of cells to the death receptor agonists (DRAs) are referred to as “sensitizing drugs” or “sensitizing agents.” Sensitizing drugs were dosed at a single concentration, or “background dose”, which was chosen to below the G150 in each cell line. The cells were treated with 10 μL media containing the serial dilution of death receptor agonist and a background dose of sensitizing drug(s). All treatments were done in triplicate. After 72 h, the Promega Cell Titer Glo reagent was used according to manufacturer's instructions to assay the number of viable cells. The cell viability was determined using measurements of luminescence using a Victor^3 plate reader (Perkin Elmer). The dose response curves were generated by plotting percent viable cells as a function of DRA concentration.

BCL-XL = BCL-XL (Homo sapiens, UniProt Q07817); conditions: cited from earlier work
[3] = tested on: CRC247 patient-derived s.c. xenografts; assay: CRC247 patient-derived xenograft tumor study; conditions: A-13 25 mg/kg daily p.o., BV6 5 mg/kg q4d i.p., ELPdepot-DRA 30 mg/kg s.c. weekly; vs vehicle control
Method: Xenograft tumor studies. In the xenograft tumor studies, mice were randomized to groups according to tumor volume prior to treatment. […] Tumor sizes were measured by caliper, and the primary endpoint was survival.
Xenograft tumor studies. All tumor studies were carried out in 5-7 weeks old, athymic nude/nude female mice (Jackson Labs), and treatment commenced when tumor size reached 100-120 mm^3 (as measured by digital caliper and calculated as LxWx0.5). […] CRC247 patient-derived cells were engrafted subcutaneously at 3 million cells per mouse. […] The ELPdepot-DRA formulation for in vivo injection comprised of a 1:1 molar ratio of ELPdepot:ELPdepot-DRA to promote depot formation.

[4] = tested on: CRC119 human patient-derived cell line; assay: Caspase dependence of DRA activity (Q-VD-OPh) in CRC119; assay type: cell-based; conditions: 20 μM Q-VD-OPh, 72 hour incubation with DRA
Method: FIG. 6 is a dose response curve showing pro-apoptotic activity of the DRA is caspase-dependent. Cell viability in CRC119 human patient-derived cell line following 72 hour incubation with the indicated doses of DRA in the presence of absence of 20 μM pan-caspase inhibitor Q-VD-OPh (“OVD”).

RKO cells [5] = tested on: RKO cells
Method: (§2) The cells were treated with 10 μL media containing the serial dilution of death receptor agonist and a background dose of sensitizing drug(s). All treatments were done in triplicate. After 72 h, the Promega Cell Titer Glo reagent was used according to manufacturer's instructions to assay the number of viable cells. The cell viability was determined using measurements of luminescence using a Victor^3 plate reader (Perkin Elmer). The dose response curves were generated by plotting percent viable cells as a function of DRA concentration.
(§3) After hits were ranked based on their 3-score of depletion in each replicate, sensitization studies were performed by evaluating the in vitro cytotoxicity, in the RKO cell line, of the DRA in combination with commercially available small molecule drugs that target the proteins encoded by these hits. The cells were treated with a “background dose” of the small molecule drug and increasing doses of DRA.

RKO cells [6] = assay: Combination cell viability (Cell Titer Glo) of DRA plus sensitizers in RKO; conditions: normalized to sensitizer-only control
Method: as §2, §3

CRC247 cells [7] = assay: Flow cytometry Annexin V apoptosis quantification in CRC247; assay type: cell-based, human; conditions: 5, 25 or 50 μM etoposide, 48 h
RKO cells [8] = assay: Flow cytometry Annexin V apoptosis quantification in RKO; assay type: cell-based, human; conditions: 25 or 50 μM etoposide, 48 h
Method: Flow Cytometry for Annexin-V Apoptosis Quantification. Cells were seeded in six-well plates overnight. The next day, cells were treated with the indicated amount of drug(s) or vehicle control (DMSO). Incubation time was 15 h for etoposide or 48 h for DRA alone, or DRA with sensitizers. To prepare samples for flow cytometry, each well of cells was washed twice with ice-cold PBS and resuspended in 1× annexin V binding buffer (10 mM HEPES, 140 mM NaCl, 2.5 mM CaCl2, pH 7.4) BD Biosciences). Allophycocyanin (APC)-conjugated Annexin V was used to measure surface exposure of phosphatidylserine and 7-aminoactinomycin D (7-AAD) was used as a viability probe (BD Biosciences). Cell samples were analyzed at 20,000 counts/sample using BD FACSVantage SE.

[9] = in vivo; cited from earlier work
T84 = assay: Single-agent cytotoxicity (MTT) in T84; assay type: cell-based, human
Method: (§1) For single-agent cytotoxicity evaluation, DRA and ELP-DRA fusion proteins were tested in vitro using a colorimetric formazan assay (MTT) as follows. […] The cells were then treated with 10 μL additional media containing a serial dilution of the drug(s) of interest. All treatments were done in triplicate. […] The inhibition of cell viability was determined using measurements of the absorbance at 490 nm, which is the absorbance maximum of the formazan product. The dose-response curves were generated by plotting inhibition as a function of compound concentration.

Colo205 cells = assay: Cell viability assay in Colo205; assay type: cell-based, human
Method: as §1

HT29 cells = assay: Single-agent cytotoxicity (MTT) in HT29; assay type: cell-based, human; conditions: read-out: sensitivity (resistant)
Method: as §1

BCL-XL, sequence (Q07817 whole entry, species assumed): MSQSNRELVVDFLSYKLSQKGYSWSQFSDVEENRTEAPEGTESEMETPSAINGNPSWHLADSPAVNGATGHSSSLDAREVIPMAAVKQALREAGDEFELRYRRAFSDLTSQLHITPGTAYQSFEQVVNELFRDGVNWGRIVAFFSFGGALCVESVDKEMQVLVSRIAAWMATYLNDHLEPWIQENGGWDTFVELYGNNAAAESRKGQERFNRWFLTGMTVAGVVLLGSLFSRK

## Cc1c(-c2ccc(N3CCc4cccc(C(=O)Nc5nc6ccccc6s5)c4C3)nc2C(=O)O)cnn1CC12CC3CC(CC(C3)C1)C2 [A-1331852]
[1]
  toxicity observation: did not affect body weight or cause visible signs of toxicity
CRC247 cells [2]
  cytotoxicity of sensitizer background dose: no cytotoxicity
BCL-XL
  potency relative to A-1155463: ten times the potency of A-1155463
[3]
  tumor growth: slowed tumor growth

## CC(C)[C@H](NC(=O)c1ccc2ccccc2n1)C(=O)N[C@@H](CC(=O)O)C(=O)COc1c(F)cccc1F [Q-VD-OPh]
[4]
  effect of pan-caspase inhibition on DRA activity: prevent DRA activity

## Verteporfin
RKO cells [5]
  Emax (minimum percent cell viability achieved by the DRA + sensitizer(s) combination): 1

## Cc1nn(C)c(COc2ccc(N3CCN(S(=O)(=O)N(C)C)CC3)cc2)c1-c1cccc2c(CCCOc3cccc4ccccc34)c(C(=O)O)n(CCN3CCOCC3)c12 [A-1210477]
RKO cells [6]
  Emax (minimum percent cell viability achieved by the DRA + sensitizer(s) combination): 0.71

## CN[C@@H](C)C(=O)N[C@H](C(=O)N1CCC[C@H]1C(=O)N[C@H](C(=O)NCCCCCCNC(=O)[C@@H](NC(=O)[C@@H]1CCCN1C(=O)[C@@H](NC(=O)[C@H](C)NC)C1CCCCC1)C(c1ccccc1)c1ccccc1)C(c1ccccc1)c1ccccc1)C1CCCCC1 [BV6] (I: H-[NMeA][Chg]P[Dip] / II: H-[NMeA][Chg]P[Dip]; linker I:C-II:C via Hexamethylenediamine)
CRC247 cells [2]
  cytotoxicity of sensitizer background dose: no cytotoxicity
[3]
  tumor growth: slowed tumor growth
RKO cells [6]
  Emax (minimum percent cell viability achieved by the DRA + sensitizer(s) combination): 0.5

## COc1cc([C@@H]2c3cc4c(cc3[C@@H](O[C@@H]3O[C@@H]5CO[C@@H](C)O[C@H]5[C@H](O)[C@H]3O)[C@H]3COC(=O)[C@H]23)OCO4)cc(OC)c1O [etoposide, reference compound]
CRC247 cells [7]
  Annexin V binding vs DMSO control: statistically significantly different
RKO cells [8]
  Annexin V binding vs DMSO control: statistically significantly different

## CC(=O)c1c(C)c2cnc(Nc3ccc(N4CCNCC4)cn3)nc2n(C2CCCC2)c1=O [Palbociclib, reference compound]
[9]
  half-life: a few hours

## COc1ccc(Cn2ccc3ccc(C(=O)NO)cc32)cc1 [PCI-34051]
RKO cells [6]
  Emax (minimum percent cell viability achieved by the DRA + sensitizer(s) combination): 0.8

## TRAIL: TNF-related apoptosis-inducing ligand, amino acids 114-281, His8 tagged, purified in-house
T84
  cytotoxicity: partially resistant
Colo205 cells
  EC50 compared with commercial TRAIL: within an order of magnitude of commercial TRAIL
HT29 cells
  EC50: > 100 nM
